For data set [1] the following is noted: cited from earlier work.
For the next data set, the system named is inflamed target tissues. The settings on record: in vivo.
Data set [2] can be described thus: 96 h application of a TDS: bioavailability, blood levels of benzopyrone during application and after removal.
The nature of data set [3]: kinetics of active ingredient diffusion through the membrane in vitro. It counts as physicochemical. On the procedure: The TDS to be tested were preselected by means of in vitro measurements of the dialysis of benzopyrone from the TDS investigated. For this purpose, the TDS available was stuck, on the side facing the skin, i.e. the membrane side, by means of the adhesive layer, in a dialysis apparatus and was dialyzed against an excess of a solution of polyethylene glycol 400 or against an albumin or saline solution for at least 24 h. […] The half-lives for a 50% and 95% diffusion yield (t/2 50% and t/2 95%, respectively) were calculated from the linear part of the dialysis curves. For example, three selected formulations gave the following half-lives (Table 1): […]

The nature of data set [4]: intra-individual pharmacokinetics, TDS versus oral tablet, one healthy volunteer. It counts as in vivo, human. Here is the method:
For better comparability, some pharmacokinetic preliminary experiments were carried out on one and the same healthy volunteer (i.e. intra-individually).

A short description of data set [5]: diffusion/dialysis of benzopyrone from formulation through cellulose membrane (layer thickness, pore size, viscosity). The class given is physicochemical. From the text: When the same formulation was used, for example, the diffusion rate increased only by a factor of 1.6 when the pore volume was increased from 20 kD to 100 kD.
Data set [6] is described as follows: GCP-complying pharmacokinetic study of TDS with 14 healthy volunteers. It counts as in vivo, human.
For the next data set, the system named is rat skin. The settings on record: cited from earlier work.
In data set [7] the test system is rat skin versus human skin. The settings on record: cited from earlier work.
Where [8] appears, read: human, blood, topical or ocular, 200 mg.
Where [9] appears, read: human, in vivo, topical or ocular.

The structures appear in SMILES notation. Where two headings read alike, the source gives them in different places.

In the case of `O=C(O)[C@H]1O[C@@H](Oc2ccc3ccc(=O)oc3c2)[C@H](O)[C@@H](O)[C@@H]1O` [glucuronide (III)], in [1] (in vivo), the pharmacological activity result is “pharmacologically inactive”.

For the compound `O=c1ccc2ccccc2o1` [benzopyrone, 5,6-benzo-alpha-pyrone], in the data set on inflamed target tissues, the accumulation in tissue result is recorded as “preferably accumulates in inflamed target tissues”. For the same compound, the “active ingredient release over total application time” value in [2] (96 h application) was “linear”. For the same compound, the “release of benzopyrone over 96 h” value in data set [2] (TDS worn 4 days) was “takes place in a constant manner”. Besides, in [2] (setting [8]), the concentration at 3 h worked out at 2.4 ng/mL, the concentration at 6 h stood at 0.8 ng/mL, the concentration at 48 h turned out to be 5.5 ng/mL and the concentration at 72 h was determined as 6.1 ng/mL. In [2] (setting [8]), the concentration at 82 h was determined as 8.7 ng/mL and the concentration at 96 h was found to be 6.6 ng/mL. For the same compound, in [2] (setting [9]), the bioavailability – broadly, the share of a dose that reaches the circulation, judged against a reference dose that is usually intravenous – at 96 h was 70%. The “kinetics of active ingredient diffusion through the membrane” value in [3] is “linear kinetics”. Also, in [4] (TDS versus oral), the “blood levels of benzopyrone (I), transdermal higher than after oral administration” value came to 10 times. Moreover, in data set [4] (human, in vivo, po), the “maximum blood levels of (I), TDS higher than after oral, based on same dose absorbed per day” value stood at 57 times. Moreover, the Tmax (usually the time at which the peak concentration occurs) in data set [4] (human, in vivo, po, t max of benzopyrone (I)) turned out to be 3 h. The bioavailability at 48 h in data set [4] (setting [9]) is 35%. Also, in data set [1] (oral application), the “first pass metabolism in the liver” value is listed as “virtually quantitative” and the “unchanged benzopyrone entering the circulation from the liver” value is “virtually no unchanged benzopyrone”. Moreover, in data set [5] (20% formulation, cellulose membrane 20 kD, 2.5 cm^2), the “dialyzable amount of benzopyrone with increasing layer thickness” value was “increases with increasing layer thickness until the saturation limit of the control membrane is reached and then remains constant”. Besides, in data set [5] (layer thickness 0.1 mm, 20% formulation, cellulose membrane 20 kD, 2.5 cm^2), the “Amount of benzopyrone diffusing within 8 h” value is 8 mg. In addition, in [5] (layer thickness 0.2 mm, 20% formulation, cellulose membrane 20 kD, 2.5 cm^2), the “Amount of benzopyrone diffusing within 8 h” value is recorded as 14 mg. For the same compound, the “Amount of benzopyrone diffusing within 8 h” value in data set [5] (layer thickness 0.4 mm, 20% formulation, cellulose membrane 20 kD, 2.5 cm^2) was found to be 14 mg. For the same compound, the “rate of dialysis of the benzopyrone” value in data set [5] (on increasing the viscosity of the formulation) was “considerably reduced”. Further, the “factor of increase of the diffusion rate” value in data set [5] (pore volume increased from 20 kD to 100 kD, same formulation) is 1.6. Besides, the concentration at 4 h in data set [6] (human, blood, topical or ocular, 4 h after removal of the TDS (200 mg)) is 4.96 ng/mL. The concentration at 3 h in data set [6] (human, blood, topical or ocular, single TDS 200 mg, application time 3 h) was determined as 23.4 ng/mL. The same compound came in with a concentration at 24 h in data set [6] (human, blood, topical or ocular, single TDS 200 mg, application time 24 h) of 27.3 ng/mL. Moreover, the “time to steady state of blood benzopyrone level” value in data set [6] (single TDS 200 mg) was 3 h. Further, in the data set with rat skin (1 g of 5% ointment over 30 cm^2, rat 1), the “unabsorbed proportion of benzopyrone after 12 hours” value (from here on “unabsorbed proportion”) is listed as 1.95 percent by weight. The “unabsorbed proportion” value with rat skin (1 g of 5% ointment over 30 cm^2, rat 2) is reported as 13.24 percent by weight. Further, in the data set on rat skin (1 g of 5% ointment over 30 cm^2, rat 3), the “unabsorbed proportion” value was 42.8 percent by weight.

As to `COC1=CC(=O)C[C@@H](C)[C@]12Oc1c(Cl)c(OC)cc(OC)c1C2=O` [griseofulvin], in data set [7], the “penetration of rat skin more readily than human skin” value is listed as 14 times.

With `O=c1ccc2ccc(O)cc2o1` [7-hydroxybenzopyrone], in data set [4] (TDS versus oral), the “blood levels of II, TDS lower than after oral dose” value is given as 6-10 times. Also, the “maximum blood concentrations of II, TDS versus oral, based on the same absorbed dose” value in data set [4] (TDS versus oral, same absorbed dose) was “approximately comparable”. Also, in [4] (oral versus transdermal), the “blood levels of 7-hydroxybenzopyrone, oral compared with transdermal” value was “substantially higher”. For the same compound, the “glucuronidation step faster than preceding oxidation reaction” value in data set [1] (liver, coupled metabolic conversion) is given as “about 3.5 times”. Also, the “decrease of blood levels of 7-hydroxybenzopyrone” value in data set [6] (after removal of the TDS) was “decreased rapidly”.

For `CC1(C)C(C=C(Cl)Cl)C1C(=O)OC(C#N)c1cccc(Oc2ccccc2)c1` (centres unmarked) [cypermethrin], the “penetration of rat skin more readily than human skin” value in [7] was 20 times.
